The text below walks through data of US20180230160A1, “2-AMINO-7A-PHENYL-3,4,4A,5,7,7A-HEXAHYDROFURO[3,4-B]PYRIDINES AS BACE1 INHIBITORS” (H. Lundbeck A/S, priority 2015, published 2018).

Like-named read-outs stand apart in the source and are kept apart here.

Data set [1] relates to P-gp (MDR1). The data set is described as follows: MDCK-MDR1 assay (permeability, efflux ratio). The class given is in vitro ADME. Conditions: dog, Papp BA/Papp AB, 60-minute incubation. The method, then: The permeability of the test compounds was assessed in MDCK-MDR1 cells that were cultured to confluency (4-6 days) in a 96 transwell plate. Test compounds were diluted with the transport buffer (HBSS+1% BSA) to a concentration of 0.5 μM and applied to the apical or basolateral side of the cell monolayer. Permeation of the test compounds from A to B direction or B to A direction was determined in triplicate over a 60-minute incubation time at 37° C. and 5% CO2 with a relative humidity of 95%. Test compounds were quantified by LC-MS/MS analysis based on the peaks area ratios of analyte/IS in both the receiver and donor wells of the transwell plate. The apparent permeability coefficient Papp (cm/s) was calculated using the equation: […]
Where dCr/dt is the cumulative concentration of compound in the receiver chamber as a function of time (μM/s); Vr is the solution volume in the receiver chamber (0.05 mL on the apical side; 0.25 mL on the basolateral side); A is the surface area for the transport, i.e. 0.0804 cm^2 for the area of the monolayer; CO is the initial concentration in the donor chamber (μM).

For data set [2], the target named is T1, human BACE1 (Homo sapiens, UniProt P56817). The data set is described as follows: BACE1 efficacy assay (FRET-based, commercial BACE1 kit). The class given is biochemical. Details: purchased Life Technologies P2985. Conditions: 10 μM test compound. The method, then: The efficacy assay was performed as a FRET-based assay using a commercially available BACE1 kit (Life Technologies, P2985). 2 μl test compound at 10 μM (final concentration) and 15 μl BACE1 enzyme from the kit (final concentration 3 nM) were preincubated for 15 minutes at room temperature before addition of 15 μl of substrate from the kit (250 nM final concentration) and incubated for additional 90 minutes at room temperature. The assay plate was subsequently read in a Pherastar (Ex540/Em590). The enzyme activity observed in presence of test compound were normalized to the enzyme activity observed in presence of buffer and 10 μM (final concentration) of the high affinity BACE1 reference inhibitor (S)-6-[3-Chloro-5-(5-prop-1-ynyl-pyridin-3-yl)-thiophen-2-yl]-2-imino-3,6-dimethyl-tetrahydropyrimidin-4-one, respectively. The efficacy of the test compounds was evaluated at 10 μM (final concentration) and defined as the percent inhibition of the enzyme activity using the equation % inhibition=100%−normalized enzyme activity in percent.

The target of data set [3] is T1, human BACE1. The data set is described as follows: BACE1 binding assay (SPA-based radioligand binding). Further details: biotin (biotinylated form); made in house; host or cells: Freestyle HEK293 cells. Conditions: pH 4.5, 10 nM radioligand, Ki=IC50/(1+L/Kd). The method, then:
The binding assay was performed as SPA-based assay using a biotinylated form of human BACE1 recombinantly expressed and subsequently purified from Freestyle HEK293 cells. The binding assay was run in a 50 mM sodium acetate buffer, pH 4.5 containing 50 mM NaCl and 0.03% Tween-20 in white clear bottom 384 plates (Corning #3653). 10 nM (final concentration) radioligand ([^3H]—N-((1S,2R)-1-benzyl-3-cyclopropylamino-2-hydroxy-propyl)-5-(methanesulfonyl-methyl-amino)-N—((R)-1-phenyl-ethyl)-isophthalamide) (TRQ11569 purchased from GE Healthcare) was mixed with test compound at a given concentration, 6 nM (final concentration) human BACE1 and 25 μg Streptavidin coated PVT core SPA beads (RPNQ0007, GE Healthcare Life Sciences) in a total volume of 40 μl. Several concentrations of each test compound were tested in the assay for […] determination. The plates were incubated for one hour at room temperature and counted in a Wallac Trilux counter. Total and non-specific binding were determined using buffer and 1 μM (final concentration) of the high affinity BACE1 reference inhibitor (S)-6-[3-chloro-5-(5-prop-1-ynyl-pyridin-3-yl)-thiophen-2-yl]-2-imino-3,6-dimethyl-tetrahydro-pyrimidin-4-one, respectively. For each test compound, a 1050 value (the concentration mediating 50% inhibition of the specific binding of the radioligand) was determined from concentration-response curve and used to calculate the Ki from the equation Ki=IC50/(1+L/Kd), where L and Kd are the final concentration of the radioligand used in the assay and the dissociation constant of the radioligand, respectively. The Kd of the radioligand was determined from saturation binding experiments.

A short description of data set [4]: Compound exposure in rat brain and plasma after oral dosing (DMPK analysis). The format is in vivo. Conditions: male, Sprague Dawley, 3 hours post dose; for concentration at 3 h: read-out: Exp (exposure); for Kp at 3 h: brain/plasma, read-out: Brain/Plasma ratio. The method, then:
(§1) Young adult Male Sprague Dawley rats of approximately 250 g weight were purchased from Charles River and received 0-30 mg/kg of vehicle (10% HP betaCD+1M MeSO4, pH 2.5) or test compounds (dissolved in vehicle) only by oral gavage (p.o). The compounds are dosed at a volume of 5 ml/kg. Cohorts of 5-10 animals were established for each treatment condition.
(§2) At T=180 minutes after initial dosing the animals were stunned and decapitated with a guillotine. Trunk-blood was sampled in EDTA coated tubes after decapitation of the animal. The blood was centrifuged at 2200G at 4° C. for 15 minutes and the plasma was collected and frozen at −80° C. The blood was aliquoted for Aβ ELISA and DMPK analysis. Immediately following sacrifice, the brain was extracted and split into 2 halves. The right hemibrains were snap frozen on dry ice and stored at −80° C. The left half was dissected; with the front forebrain taken for Aβ ELISA and the remainder used for DMPK analysis. These samples were also snap frozen on dry ice and stored at −80° C. until use for analysis.
The results of the administration of representative Compounds of Examples 1, 2, 5, […], of brain and plasma samples collected at 3 hours post dose and then following exposures, as described above, are tabulated below.

Data set [5] deals with Aβ40 peptide. The data set can be described thus: Assessment of Aβ peptide levels in rat brain and plasma following BACE1 inhibition (Aβ40 ELISA). Conditions: 3 hours post dose, vs vehicle. The class given is in vivo. The method, then:
Assessment of Aβ Peptide Levels in Rat Brain and Plasma Following BACE1 Inhibition. Animals.
as §1, §2
The cortex samples were thawed slightly on wet ice before they were homogenized with a small volume dispersing instrument (T10 basic ULTRA-TURRAX®) which was set at speed 5 for approximately 5-7 sec. The tissue was processed in a 10 times volume of the weight, for example 100 mg of tissue was homogenized in 1000 μL of Homogenization buffer. Homogenization buffer: 50 ml Milli Q water+50 nM NaCl+0.2% Diethylamin (DEA)+1 tablet of Complete Protease inhibitor cocktail+1 nM 4-(2-aminoethyl) benzenesulfonyl fluoride hydrochloride irreversible serine protease inhibitor (AEBSF).
After homogenization 450 μL aliquots of the samples are collected into a 1.5 ml Eppendorf tube and placed on wet ice, 0.5% NP-40 (50 ul) was added to all samples and then they were incubated on ice for 30 min. After which all samples were sonicated using an Ultrasonic homogenizer with 20 kHz homogeneous sound (SONOPLUS HD2070, Bandelin Electronic) 10 pulse set at 12-13% power to extract all the Aβ species. The samples were then centrifuged (Ole Dich 157 MPRF Micro centrifuge) at 20000G for 20 minutes at 4° C. After centrifugation 285 μL of the supernatant was pipetted into 600 μL microtubes tubes and neutralized with 15 μL of 1M Tris-HCL buffer.
WAKO 294-62501 Human/Rat Abeta amyloid (40) kit was used for all ELISA analyses. 30 μL plasma samples or 30 μL of the cortex supernatants generated as described above were placed in 600 μL microtubes tubes on wet ice. To this 30 μL of 8M urea (AppliChem A1049, 9025) was added to generate a 2-fold dilution. Both plasma and cortex supernatants were incubated on ice for 30 min. Standard rows were prepared from the standard peptide stock provided in the kit and standard diluent containing 1.6M urea (200 μL 8M urea+800 μL of standard diluent) and 0.8M urea (400 μL 8M Urea+3600 μL Standard diluent). A serial 2-fold dilution of Aβ40 from 100 pmol/ml to 0 pmol/L was prepared for the assay.
After incubation with urea, all samples were further diluted by addition of 5 times standard diluent from the Kit. This was done by adding 240 μL Standard Diluent to 60 μL sample/urea mixture, which was then mixed well. 100 μL of each diluted sample was pipetted into designated wells of the ELISA plate in duplicates. The plate was then covered and incubated overnight at 4° C. The following day, the ELISA kit was brought to room temperature before use. The incubated plate was washed 5 times with the 20× washing solution diluted in Milli Q water. 100 μL HRP-conjugate was applied to each well, and the plate was covered and incubates at 4° C. for 1 hr. The wash was repeated again for 5 times. 100 μL 3,3′,5,5′-Tetramethylbenzidine (TMB) solution was applied to each well and the plate was covered and incubated in the dark at room temperature for 30 minutes. […]

T1 sequence (P56817 46-501): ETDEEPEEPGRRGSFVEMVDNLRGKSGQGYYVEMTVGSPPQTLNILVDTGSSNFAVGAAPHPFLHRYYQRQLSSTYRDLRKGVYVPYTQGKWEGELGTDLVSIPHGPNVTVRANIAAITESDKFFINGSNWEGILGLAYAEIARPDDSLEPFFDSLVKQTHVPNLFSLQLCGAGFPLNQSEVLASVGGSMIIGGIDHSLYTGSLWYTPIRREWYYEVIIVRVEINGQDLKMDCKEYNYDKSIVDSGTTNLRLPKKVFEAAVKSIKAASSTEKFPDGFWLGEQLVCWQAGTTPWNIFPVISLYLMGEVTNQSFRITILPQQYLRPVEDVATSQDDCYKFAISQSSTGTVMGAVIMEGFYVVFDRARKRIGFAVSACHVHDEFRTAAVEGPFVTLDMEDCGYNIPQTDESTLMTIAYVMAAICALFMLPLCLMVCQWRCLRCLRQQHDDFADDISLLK

For the compound `NC1=N[C@@]2(c3cc(NC(=O)c4ccc(F)cn4)cc(F)c3F)COC[C@H]2C[C@@]1(F)CF` [Example 23, N-[3-[(3S,4aS,7aS)-2-amino-3-fluoro-3-(fluoromethyl)-4,4a,5,7-tetrahydrofuro[3,4-b]pyridin-7a-yl]-4,5-difluoro-phenyl]-5-fluoro-pyridine-2-carboxamide], in data set [1], the efflux ratio at 60 min, 0.5 μM was found to be 0.89. For the same compound, the inhibition at 10 µM in data set [2] was 103%. The Ki in data set [3] stood at 200 nM.
Consider `C[C@@]1(F)C[C@]2(F)COC[C@]2(c2cc(NC(=O)c3ccc(F)cn3)ccc2F)N=C1N` [Example 12, N-(3-((3R,4aR,7aS)-2-amino-3,4a-difluoro-3-methyl-3,4,4a,5,7,7a-hexahydrofuro[3,4-b]pyridin-7a-yl)-4-fluorophenyl)-5-fluoropicolinamide], for which the efflux ratio at 60 min, 0.5 μM in data set [1] is 1.67. In addition, the inhibition at 10 µM in data set [2] came out at 103%. Besides, in data set [3], the affinity, expressed as Ki, was 24 nM.
`COc1cnc(C(=O)Nc2cc(F)c(F)c([C@]34COC[C@H]3C[C@@](F)(CF)C(N)=N4)c2)cn1` [Example 24, N-[3-[(3S,4aS,7aS)-2-amino-3-fluoro-3-(fluoromethyl)-4,4a,5,7-tetrahydrofuro[3,4-b]pyridin-7a-yl]-4,5-difluoro-phenyl]-5-methoxy-pyrazine-2-carboxamide]: the efflux ratio at 60 min, 0.5 μM in data set [1] was determined as 0.82. Besides, the inhibition at 10 µM in data set [2] was determined as 103%. The compound also registered a Ki in data set [3] of 130 nM.
As for `COc1ccc(C(=O)Nc2ccc(F)c([C@]34COC[C@H]3C[C@@](F)(CF)C(N)=N4)c2)nc1` [Example 21, N-(3-((3S,4aS,7aS)-2-amino-3-fluoro-3-(fluoromethyl)-3,4,4a,5,7,7a-hexahydrofuro[3,4-b]pyridin-7a-yl)-4-fluorophenyl)-5-methoxypicolinamide], the efflux ratio at 60 min, 0.5 μM in data set [1] came out at 0.61. Besides, in data set [2], the inhibition at 10 µM was 103%. The compound also came in with a Ki in data set [3] of 55 nM.
As to `C[C@]1(F)C[C@]2(F)COC[C@]2(c2cc(NC(=O)c3ccc(F)cn3)ccc2F)N=C1N` [Example 2, N-(3-((3S,4aR,7aS)-2-amino-3,4a-difluoro-3-methyl-3,4,4a,5,7,7a-hexahydrofuro[3,4-b]pyridin-7a-yl)-4-fluorophenyl)-5-fluoropicolinamide], the concentration at 3 h in data set [4] (Brain, 10 mg/kg p.o.) is 37 ng/g; in data set [4] (Brain, 30 mg/kg p.o.), 136 ng/g; in data set [4] (Plasma, 10 mg/kg p.o.), 69 ng/g; in data set [4] (Plasma, 30 mg/kg p.o.), 244 ng/g. Besides, the Kp at 3 h was found to be 0.54 in data set [4] (10 mg/kg p.o.) and 0.56 in data set [4] (30 mg/kg p.o.). For the same compound, the efflux ratio at 60 min, 0.5 μM in data set [1] was 1.27. The same compound displayed a Ki in data set [3] of 31 nM. In addition, the Aβ40 reduction in data set [5] (Brain, 10 mg/kg p.o.) was 25%; in data set [5] (Brain, 30 mg/kg p.o.), 24%; in data set [5] (Plasma, 10 mg/kg p.o.) it was 48%; in data set [5] (Plasma, 30 mg/kg p.o.), 47%.
Consider `COc1cnc(C(=O)Nc2ccc(F)c([C@]34COC[C@@]3(F)C[C@](C)(F)C(N)=N4)c2)cn1` [Example 5, N-(3-((3S,4aR,7aS)-2-amino-3,4a-difluoro-3-methyl-3,4,4a,5,7,7a-hexahydrofuro[3,4-b]pyridin-7a-yl)-4-fluorophenyl)-5-methoxypyrazine-2-carboxamide], for which the concentration at 3 h in data set [4] (Brain, 10 mg/kg p.o.) turned out to be 204 ng/g; in data set [4] (Brain, 30 mg/kg p.o.) it was 695 ng/g; in data set [4] (Plasma, 10 mg/kg p.o.), 174 ng/g; in data set [4] (Plasma, 30 mg/kg p.o.) it was 598 ng/g. For the same compound, the Kp at 3 h in data set [4] (10 mg/kg p.o.) came out at 1.17; in data set [4] (30 mg/kg p.o.), 1.16. Besides, the efflux ratio at 60 min, 0.5 μM in data set [1] is 0.91. The same compound displayed a Ki in data set [3] of 17 nM. In addition, the Aβ40 reduction in data set [5] (Brain, 10 mg/kg p.o.) is reported as 40%; in data set [5] (Brain, 30 mg/kg p.o.), 47%; in data set [5] (Plasma, 10 mg/kg p.o.), 41%; in data set [5] (Plasma, 30 mg/kg p.o.) it was 45%.
